This note sets out measurements from ChEMBL document CHEMBL4806956, “1-heteroaryl-indoline-4-carboxamides as modulators of gpr52 useful for the treatment or prevention of disorders related thereto” (2020).

The source made the active and inactive calls. No cut-off for these calls is given here.

Data set [1] addresses G-protein coupled receptor 52 (Mus musculus) (UniProt P0C5J4). The data set can be described thus: In vivo agonist activity at GPR52 in C57BL/6 mouse assessed as inhibition of basal locomotor activity at 10 mg/kg, po measured for 60 mins starting at 15 mins post-drug challenge. It is filed as functional, organism-based. As to conditions: time 75.0 min.
Data set [2] can be described thus: Ratio of drug level in brain to plasma in C57BL/6 mouse at 10 mg/kg, po measured after 60 mins by LC/MS/MS analysis. It is filed as ADME, organism-based. The note with it: brain and plasma, read-out: BPR.
In data set [3] the target is G-protein coupled receptor 52 (Mus musculus) (UniProt P0C5J4). The experiment in a line: In vivo agonist activity at GPR52 in po dosed C57BL/6 mouse assessed as inhibition of basal locomotor activity measured for 60 mins starting at 15 mins post-drug challenge. The data set is classed as functional, organism-based. The note with it: time 75.0 min.
G-protein coupled receptor 52 (Mus musculus), sequence (P0C5J4 whole entry): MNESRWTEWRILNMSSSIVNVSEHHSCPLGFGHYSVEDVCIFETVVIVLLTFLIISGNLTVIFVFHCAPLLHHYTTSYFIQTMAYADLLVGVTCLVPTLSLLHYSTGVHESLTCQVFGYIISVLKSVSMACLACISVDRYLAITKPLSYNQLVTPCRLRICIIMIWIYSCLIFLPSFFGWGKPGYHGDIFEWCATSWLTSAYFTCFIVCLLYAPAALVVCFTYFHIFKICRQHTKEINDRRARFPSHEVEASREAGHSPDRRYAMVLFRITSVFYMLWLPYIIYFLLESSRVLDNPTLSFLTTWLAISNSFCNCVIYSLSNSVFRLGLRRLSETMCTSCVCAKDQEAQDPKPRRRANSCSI
Data set [4] deals with Rattus norvegicus. The data set can be described thus: Antipsychotic activity in Sprague-Dawley rat assessed as inhibition of amphetamine-stimulated locomotor activity at 0.5 to 20 mg/kg, po administered 15 mins prior to amphetamine stimulation and measured for 30 to 60 mins post-drug dosage. It is filed as functional, organism-based. As to conditions: dose 0.5-20 mg/kg, time 30-60 min.

Data set [5] in a line: Toxicity in Sprague-Dawley rat assessed as inhibition of basal locomotor activity at 20 mg/kg, po. The data set is classed as organism-based. The note with it: in vivo.
The subject of data set [6] is Rattus norvegicus. The experiment in a line: Antipsychotic activity in Sprague-Dawley rat assessed as inhibition of amphetamine-induced disruption of prepulse inhibition at 5 to 20 mg/kg, po administered 15 mins prior to amphetamine challenge and measured after 15 mins. It is filed as functional, organism-based. As to conditions: dose 5-20 mg/kg, time 30.0 min.
The test system of data set [7] is Rattus norvegicus. The data set can be described thus: Antipsychotic activity in Sprague-Dawley rat assessed as inhibition of MK801-induced disruption of prepulse inhibition at 5 to 20 mg/kg, po administered 15 mins prior to […] and measured after 15 mins. The data set is classed as functional, organism-based. The note with it: dose 5-20 mg/kg, time 30.0 min.

Data set [8] relates to Mus musculus. The experiment in a line: Increase in PPI in 129Sv/Ev mouse with low PPI at 10 mg/kg, po measured after 30 mins. The data set is classed as functional, organism-based.
Data set [9] deals with Mus musculus. The experiment in a line: Antipsychotic activity in 129Sv/Ev mouse assessed as inhibition of MK801-induced disruption of prepulse inhibition at 10 mg/kg, po co-administered with haloperidol at 15 mins prior to MK801 challenge and measured after 15 mins. It is filed as functional, organism-based. The note with it: time 30.0 min.
A short description of data set [10]: Induction of catalepsy in Sprague-Dawley rat assessed as increase in latency to move both forepaws at 5 to 100 mg/kg, po measured after 45 mins. The data set is classed as organism-based. The note with it: in vivo, 0.75 h, dose 5-100 mg/kg.
Data set [11] is described as follows: Induction of hyperprolactinemia in Sprague-Dawley rat assessed as increase in prolactin release in plasma at 1 to 100 mg/kg, po measured after 60 mins by ELISA. As to conditions: in vivo, 1 h, dose 1-100 mg/kg. The data set is classed as organism-based.
Data set [12] concerns Rattus norvegicus. The data set can be described thus: Inhibition of haloperidol-induced hyperprolactinemia in Sprague-Dawley rat assessed as reduction in prolactin release in plasma at 10 mg/kg, po administered 30 mins prior to 0.3 mg/kg haloperidol challenge and measured after 60 mins by ELISA. The data set is classed as functional, organism-based. As to conditions: time 90.0 min.

The nature of data set [13]: Ratio of drug level in brain to plasma in C57BL/6 mouse at 3 mg/kg, po measured after 60 mins by LC/MS/MS analysis. The data set is classed as ADME, organism-based. As to conditions: brain and plasma, read-out: BPR.
Data set [14] is described as follows: Induction of catalepsy in Sprague-Dawley rat assessed as increase in latency to move both forepaws at 0.1 to 1 mg/kg, sc measured after 45 mins. It is filed as organism-based. As to conditions: in vivo, 0.75 h, dose 0.1-1 mg/kg.
Data set [15] is described as follows: Induction of hyperprolactinemia in Sprague-Dawley rat assessed as increase in prolactin release in plasma at 0.1 to 1 mg/kg, po measured after 60 mins by ELISA. The data set is classed as organism-based. As to conditions: in vivo, 1 h, dose 0.1-1 mg/kg.

Consider `NC(=O)c1cccc2c1CCN2c1cc(Cc2ccc(F)c(C(F)(F)F)c2)ccn1`, for which the inhibition in [1] stood at 61%. With `C[C@@H](O)CNC(=O)c1cccc2c1CCN2c1cc(Cc2cc(F)c(F)c(F)c2)ccn1`, in [1], the inhibition amounted to 68%.

In the case of `CC(=O)c1cccc(Cc2ccnc(N3CCc4c(C(N)=O)cccc43)c2)c1`, the inhibition in [1] was determined as 72%. Further, the Kp at 1 h in data set [2] turned out to be 1.36. As to `COc1ccc(Cc2ccnc(N3CCc4c(C(=O)NC[C@@H](F)CO)cccc43)c2)cc1F`, the inhibition in [1] worked out at 67%.

With `O=C(NCCO)c1cccc2c1CCN2c1cc(Cc2cccc(C(F)(F)F)c2)ccn1`, in data set [3], the ED50 worked out at 2.7 mg/kg. In addition, in data set [1], the inhibition worked out at 70%. Besides, the result with Rattus norvegicus [4], in the data set with Rattus norvegicus [6], in the data set on Rattus norvegicus [7], in the data set with Mus musculus [8] and in the data set with Mus musculus [9] was Active. Besides, the Activity entry in [5] is reported as “Toxic”; in [10] it was “Non-Toxic”; in [11] it was “Non-Toxic”. For the same compound, the inhibition entry in the data set on Rattus norvegicus [12] is “Active”. The Kp at 1 h in data set [13] is 3.51.

With `COc1ccc(Cc2ccnc(N3CCc4c(C(N)=O)cccc43)c2)cc1F`, in data set [1], the inhibition came to 66%. Further, the Kp at 1 h in data set [2] was 6.32. For `COC[C@@H](O)CNC(=O)c1cccc2c1CCN2c1cc(Cc2cc(F)c(F)c(F)c2)ccn1`, in data set [1], the inhibition turned out to be 72%.

`NC(=O)c1cccc2c1CCN2c1cc(Cc2cncc(C(F)(F)F)c2)ccn1`: the Kp at 1 h in data set [2] amounted to 4.67.

In the case of `NC(=O)c1cccc2c1CCN2c1cc(Cc2ccc3occc3c2)ccn1`, in data set [1], the inhibition came out at 81%. As to `COc1ccc(Cc2ccnc(N3CCc4c3ccc(F)c4C(=O)NC[C@@H](F)CO)c2)cc1F`, the inhibition in [1] is 62%.

For the compound `O=C(NC[C@@H](F)CO)c1cccc2c1CCN2c1cc(Cc2cc(F)c(F)c(F)c2)ccn1`, in data set [1], the inhibition is 70%. For the same compound, the Kp at 1 h in [2] amounted to 2.85. Turning to `NC(=O)c1cccc2c1CCN2c1cc(Cc2cc(F)cc(Cl)c2)ccn1`, the Kp at 1 h in data set [2] was 12.4. Same read-out and setting: the same measure for `O=C(NCCO)c1c(F)ccc2c1CCN2c1cc(Cc2cccc(C(F)(F)F)c2)ccn1`: 1.67.

As for `O=C(NCCO)c1c(F)ccc2c1CCN2c1cc(Cc2cc(F)c(F)c(F)c2)ccn1`, the inhibition in data set [1] was 68%.

Consider `O=C(CCCN1CCC(O)(c2ccc(Cl)cc2)CC1)c1ccc(F)cc1` [HALOPERIDOL], for which the Activity entry in data set [14] and in data set [15] was “Toxic” each time. On to `NC(=O)c1cccc2c1CCN2c1cc(Cc2cccc(C(F)(F)F)c2)ccn1`, for which the Kp at 1 h in [13] is 4.49.

Turning to `COc1ccc(Cc2ccnc(N3CCc4c(C(=O)NCCO)cccc43)c2)cc1F`, the Kp at 1 h in [2] worked out at 0.87.

With `O=C(NCCO)c1cccc2c1CCN2c1cc(Cc2cc(F)cc(Cl)c2)ccn1`, in data set [1], the inhibition turned out to be 79%. The Kp at 1 h in [2] is 5.45. Taken in the same sequence, the figures for `O=C(NCCO)c1cccc2c1CCN2c1cc(Cc2cc(F)c(F)c(F)c2)ccn1` were 65% and 3. As for `NC(=O)c1cccc2c1CCN2c1cc(Cc2ccc(F)c(Cl)c2)ccn1`, the Kp at 1 h in data set [2] stood at 7.76.

Take `O=C(NC1CCN(CCO)CC1)c1cccc2c1CCN2c1cc(Cc2ccc3c(c2)CCO3)ccn1`: in data set [2], the Kp at 1 h was 0.16.
